# Results as given in article PMC12564498, “Benzo[d]imidazole–Naphthalen-Arylmethanone Regioisomers as CB1 Ligands: Evaluation of Agonism via an Indirect Cytotoxicity-Based Approach” (International Journal of Molecular Sciences, 2025).
# Several values for one entry are separate records, joined by “and”; a condition that tells them apart may be missing. Equal entries are not always repeated. Where two headings read alike, the source gives them in different places.
# Columns and labels:
# [1] = target: T1, human cannabinoid CB1 receptor (Homo sapiens, UniProt P21554); experiment: biochemical; assay type: binding; settings: for Ki: Cheng–Prusoff from IC50, [3H]CP-55940 0.5 nM, read-out: CB1 Ki; for Ki / IC50: mean ± SEM n = 3; for IC50: [3H]CP-55940 0.5 nM, hCB1 HEK293-EBNA membranes, read-out: CB1 IC50; for inhibition at 10 µM: displacement of [3H]CP-55940 at 10 μM compound, read-out: CB1 Max Tested µM (% Displacement)
# T1 construct: purchased Perkin Elmer Inc., Singapore Pte; Ltd. RBHCB1M400UA; host or cells: HEK293-EBNA cell membranes (overexpressing)
# [2] = target: T2, human recombinant cannabinoid CB2 receptor (Homo sapiens, UniProt P34972); experiment: CB2 radioligand displacement binding assay ([3H]CP-55940); settings: for Ki: Cheng–Prusoff from IC50, [3H]CP-55940 0.5 nM; for Ki / IC50: mean ± SEM n = 3; for IC50: [3H]CP-55940 0.5 nM, hCB2 HEK293-EBNA membranes; for inhibition at 10 µM: displacement of [3H]CP-55940 at 10 μM compound, read-out: CB2 Max Tested µM (% Displacement)
# T2 construct: purchased Perkin Elmer Inc., Singapore Pte; Ltd. RBXCB2M400UA; host or cells: HEK293-EBNA cell membranes (overexpressing)
# HEK293 cells = experiment: cells; settings: for cytotoxicity at 0.1 µM: read-out: % Toxicity HEK293T, 0.1 μM, 72 h, MTT, n = 3; for cytotoxicity in HEK293: Figure 4, MTT; for IC50: read-out: IC50 toxicity HEK293T
# Procedure: (§1) HEK293, U87MG, and HL-60 cell lines were seeded in a flat-bottom 96-well plate at a density of 10,000 cells per well. […] All compounds were incubated at 0.1 μM in 200 μL of culture medium supplemented with 10% FBS, in a flat-bottom 96-well plate at a density of 10,000 cells per well, at 37 °C for 72 h. Next, 20 μL of a 5 mg/mL MTT solution was added, and the cells were incubated at 37 °C for 4 h. Then, they were solubilized with 10% sodium dodecyl sulfate (SDS) in 0.1 mM HCl and incubated overnight at 37 °C. Formazan absorbance of each well was measured using the EPOCH microplate reader (Biotek, Winooski, VT, USA) at a wavelength of 570 nm. […]
# (§2) promyelocytic leukemia cells (HL-60) were maintained at 5% CO2 and 37 °C in DMEM, EMEM and RPMI medium, respectively containing 10% Fetal Bovine Serum and 100 U/mL penicillin and 100 […]
# (§3) Cell viability: ([MTT - (3-(4,5-dimethylthiazol-2-yl)-2,5-diphenyltetrazolium bromide) - formazan] HEK293, U87MG, and HL-60 cells were first quantified to determine the exact number to be used in […]
# (§4) with the Beer-Lambert(1).
# (§5) HEK293, U87MG and HL-60 cell lines were seed in a flat-bottom 96-wells plate at a density of 10,000 […]
# (§6) concentrations (0.001 μM to 10 μM) in 200 μL of respective culture medium supplemented with 10% fetal bovine serum (FBS), at 37 °C for 72 hours. Subsequently, 20 μL of 5 mg/mL MTT solution was added to each well, and cells were incubated at 37 °C for 4 h. The resulting formazan crystals were then solubilized with 10% sodium dodecyl sulfate (SDS) in 0.1 mM HCl, followed by overnight incubation at 37 °C. Untreated cells were used as the control, 0.1% of dimethyl sulfoxide (DMSO) as the vehicle control, and 0.2 % of Triton X-100 as a positive control for cell death. IC 50 toxicity values […]
# (§7) same conditions described in the previous paragraph. […]
# (§8) determined IC50. The stimulation with both CB ligands was performed simultaneously.
# (§9) All compounds were incubated at 0.1 μM in 200 μL of culture medium supplemented with 10% FBS, in a flat-bottom 96-well plate at a density of 10,000 cells per well, at 37°C for 72 hours. Next, 20 μL of a 5 mg/mL MTT solution was added, and the cells were incubated at 37°C for 4 hours. Then, they were solubilized with 10% sodium dodecyl sulfate (SDS) in 0.1 mM HCl and incubated overnight at 37°C. Formazan absorbance of each well was measured using the EPOCH microplate reader (Biotek, USA) at a wavelength of 570 nm.
# (§10) [1]Mosorov, V., The Lambert-Beer law in time domain form and its application.
# HL-60 cells = experiment: cells; settings: for cytotoxicity at 0.1 µM: read-out: % Toxicity HL-60; for cytotoxicity in HL-60: Figure 4, MTT
# Procedure: as §1, §2, §3, §4, §5, §6, §7, §8, §9, §10
# U87MG cells = experiment: cells; settings: 72 h; for cytotoxicity at 0.1 µM: read-out: % Toxicity U87MG, 0.1 μM, 72 h, MTT, n = 3; for cytotoxicity in U87MG: Figure 4, MTT, 0.001 μM to 10 μM
# Procedure: as §1, §2, §3, §4, §5, §6, §7, §8, §9, §10
# [3] = read-out: IC50 toxicity U87MG, MTT
# T1 sequence (P21554 whole entry): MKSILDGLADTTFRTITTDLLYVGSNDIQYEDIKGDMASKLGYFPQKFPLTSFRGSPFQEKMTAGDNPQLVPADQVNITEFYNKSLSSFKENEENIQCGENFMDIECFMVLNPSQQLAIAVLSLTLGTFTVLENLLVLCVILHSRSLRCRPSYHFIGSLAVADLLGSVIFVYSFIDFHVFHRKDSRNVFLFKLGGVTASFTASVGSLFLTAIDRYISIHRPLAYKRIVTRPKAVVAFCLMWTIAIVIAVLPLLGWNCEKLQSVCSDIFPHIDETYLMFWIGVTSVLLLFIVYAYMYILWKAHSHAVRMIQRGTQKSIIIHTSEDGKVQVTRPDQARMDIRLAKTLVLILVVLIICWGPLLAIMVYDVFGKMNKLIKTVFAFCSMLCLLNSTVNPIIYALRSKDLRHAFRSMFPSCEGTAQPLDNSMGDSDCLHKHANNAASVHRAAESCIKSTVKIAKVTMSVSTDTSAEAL
# T2 sequence (P34972 whole entry): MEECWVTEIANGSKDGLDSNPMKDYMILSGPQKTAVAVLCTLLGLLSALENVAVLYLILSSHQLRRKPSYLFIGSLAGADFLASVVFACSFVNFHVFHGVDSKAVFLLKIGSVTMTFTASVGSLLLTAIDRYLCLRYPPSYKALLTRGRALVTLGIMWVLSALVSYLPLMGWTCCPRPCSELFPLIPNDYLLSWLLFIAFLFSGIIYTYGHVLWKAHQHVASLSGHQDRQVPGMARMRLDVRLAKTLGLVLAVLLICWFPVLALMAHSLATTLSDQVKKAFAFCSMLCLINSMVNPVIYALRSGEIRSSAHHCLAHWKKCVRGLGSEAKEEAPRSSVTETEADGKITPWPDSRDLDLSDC
Structure (SMILES),Ki [1],IC50 [1] [µM],inhibition at 10 µM [1] [%],Ki [2],IC50 [2] [µM],inhibition at 10 µM [2] [%],"cytotoxicity at 0.1 µM (HEK293 cells; Homo sapiens, HEK293, 72 h) [%]","cytotoxicity at 0.1 µM (HL-60 cells; Homo sapiens, HL-60, 72 h) [%]","cytotoxicity at 0.1 µM (U87MG cells; Homo sapiens, U-87 MG) [%]","cytotoxicity in HEK293 (HEK293 cells; 0.001 μM to 10 μM, 72 h)","cytotoxicity in HL-60 (HL-60 cells; 0.001 μM to 10 μM, 72 h)",cytotoxicity in U87MG (U87MG cells),IC50 (U87MG cells; [3]) [µM],also measured
"Cc1ccc(-c2nc3cc(F)ccc3n2C(=O)c2cccc3ccccc23)o1 [Compound 5e, (5-fluoro-2-(5-methylfuran-2-yl)-1H-benzo[d]imidazol-1-yl)(naphthalen-1-yl)methanone]",1.82 ± 1.64 µM,7.4 ± 3.28,> 55,> 10 µM,> 10,38.5,55 ± 23,50 ± 19,39 ± 18,,,,,
COc1cccc(-c2nc3ccc(Cl)cc3n2C(=O)c2cccc3ccccc23)c1 [4b′],> 10 µM,> 10,43,~4.46 µM and 4.46 µM,6.76 ± 3.09,58,50 ± 11,52,39 ± 20,,,,,"% Toxicity HL-60 (HL-60 cells; 0.1 μM, 72 h, MTT, n = 3): 52 ± 13%"
"Cc1c(C(=O)c2cccc3ccccc23)c2cccc3c2n1C(CN1CCOCC1)CO3 (centres unmarked) [WIN-55212-2, reference compound]",,,,,,,,,~30,harmlessness,exhibits cytotoxicity,exhibits cytotoxicity,0.25,"displacement of specific radioligand binding (nonspecific binding definition), CB2 ([2]; 10 μM unlabeled WIN-55212-2, cannabinoid receptors): at least 84%; IC50 (HEK293 cells; Homo sapiens, HEK293, 72 h): > 10 µM; IC50 (HL-60 cells; Homo sapiens, HL-60, 72 h, read-out: IC50 toxicity HL-60): 1.39 µM; IC50 (HL-60 cells; Homo sapiens, HL-60, read-out: IC50 HL-60 cells as printed in the figure picture): 1.38 µM; IC50 (U87MG cells; Homo sapiens, U-87 MG, read-out: IC50 toxicity U87MG, MTT, 72 h): 0.2 µM"
"COc1cccc(-c2nc3cc(F)ccc3n2C(=O)c2cccc3ccccc23)c1 [Compound 5b, (5-fluoro-2-(3-methoxyphenyl)-1H-benzo[d]imidazol-1-yl)(naphthalen-1-yl)methanone]",~1.53 µM and 1.53 µM,6.23 ± 3.8,> 55,> 10 µM,> 10,45,75 ± 17,45 ± 17,25 ± 14,,,,,
"COc1ccc(C(=O)c2c(C)n(CCN3CCOCC3)c3cc(I)ccc23)cc1 [AM630, reference compound]",,,,,,,,,,non-toxic,non-toxic,non-toxic,> 10,"IC50 (HEK293 cells; MTT, 72 h, 0.001 μM to 10 μM): > 10 µM; IC50 (HL-60 cells; read-out: IC50 toxicity HL-60, MTT, 72 h, 0.001 μM to 10 μM): > 10 µM"
